Read-outs that look alike come from different tables or passages of the source.
Legend:
Assay in all cases: cells
Assay type in all cases: cell-based
[1] = test system: A2780cis (ovarian carcinoma) cells; settings: Homo sapiens
[2] = test system: A2780 (human ovarian carcinoma) cells; settings: for IC50: Homo sapiens
[3] = test system: CCD18Co (non-malignant human fibroblasts); settings: CCD-18Co
[4] = test system: panel of five different human tumor cell lines; settings: read-out: IC50 range over tumor cell lines
[5] = test system: A549 (lung carcinoma) cells; settings: Homo sapiens
[6] = test system: MCF7 (breast carcinoma) cells; settings: Homo sapiens
[7] = test system: HT29 (colorectal carcinoma) cells; settings: Homo sapiens
[8] = A2780, 72 h, read-out: IC50 A2780
[9] = A549, 72 h, read-out: IC50 A549
[10] = MCF7, 72 h, read-out: IC50 MCF7
[11] = HT-29, 72 h, read-out: IC50 HT29

COc1cc(CNC(=O)CCCCC=CC(C)C)ccc1O [A, 8-methyl-N-vanillyl-6-nonenamide, reference compound]
IC50 ([1]; 72 h, read-out: IC50 A2780cis): 84.3 µM | IC50 ([1]; read-out: IC50 A2780cis, converted into μg/mL): 25.8 µg/mL | Selectivity index SI (IC50 CCD18Co/IC50 A2780) [2]: >6.3 | IC50 [2, 8]: 15.9 µM | IC50 ([2]; A2780, read-out: IC50 A2780, converted into μg/mL): ~4.86 µg/mL | IC50 ([3]; 72 h, read-out: IC50 CCD18Co): > 100 µM | IC50 ([3]; read-out: IC50 CCD18Co, converted into μg/mL): > 30.5 µg/mL | IC50 [4]: 15 to 84 µM | IC50 [5, 9]: 70.3 µM | IC50 ([5]; A549, read-out: IC50 A549, converted into μg/mL): 21.5 µg/mL | IC50 [6, 10]: 42.1 µM | IC50 ([6]; MCF7, read-out: IC50 MCF7, converted into μg/mL): 12.9 µg/mL | IC50 [7, 11]: 51 µM | IC50 ([7]; HT-29, read-out: IC50 HT29, converted into μg/mL): 15.6 µg/mL

CCCCCCCCCCCC(=O)NCc1ccc(O)c(OC)c1 [Compound 15, N-[(4-Hydroxy-3-methoxy)benzyl]dodecanamide]
IC50 [2, 8]: < 10 µM

CCCCCCCCCCCCC(=O)NCc1ccc(O)c(OC)c1 [Compound 17, N-[(4-Hydroxy-3-methoxy)benzyl]tridecanamide]
IC50 [2, 8]: < 10 µM

CCCCCCCCCCCCCC(=O)NCc1ccc(O)c(OC)c1 [Compound 19, N-[(4-Hydroxy-3-methoxy)benzyl]tetradecanamide]
IC50 [2, 8]: < 10 µM

CCCCCCCCCCCCCCC(=O)NCc1ccc(O)c(OC)c1 [Compound 21, N-[(4-Hydroxy-3-methoxy)benzyl]pentadecanamide]
IC50 [2, 8]: < 10 µM

CCCCCCCCCCCCCCCCC(=O)NCc1ccc(O)c(OC)c1 [Compound 25, N-[(4-Hydroxy-3-methoxy)benzyl]heptadecanamide]
IC50 ([1]; 72 h, read-out: IC50 A2780cis): > 100 µM | IC50 ([3]; 72 h, read-out: IC50 CCD18Co): > 100 µM | IC50 [5, 9]: 60.5 µM | IC50 [6, 10]: 38.4 µM | IC50 [7, 11]: 78.5 µM

CCCCCCCCCCCCCCCCCC(=O)NCc1ccc(O)c(OC)c1 [Compound 27, N-[(4-Hydroxy-3-methoxy)benzyl]octadecanamide]
IC50 ([1]; 72 h, read-out: IC50 A2780cis): 76.4 µM | Selectivity index SI (IC50 CCD18Co/IC50 A2780) [2]: >29.0 | IC50 ([3]; 72 h, read-out: IC50 CCD18Co): > 100 µM | IC50 [5, 9]: 50.3 µM | IC50 [6, 10]: 32.6 µM | IC50 [7, 11]: 42.4 µM

CCCCCCCCCCCCCCCCCCC(=O)NCc1ccc(O)c(OC)c1 [Compound 29, N-[(4-Hydroxy-3-methoxy)benzyl]nonadecanamide]
IC50 ([1]; 72 h, read-out: IC50 A2780cis): 59.5 µM | IC50 ([3]; 72 h, read-out: IC50 CCD18Co): > 100 µM | IC50 [5, 9]: 55.3 µM | IC50 [6, 10]: 15.9 µM | IC50 [7, 11]: 68.4 µM
